# Laboratory results from patent US20060058317A1, “Oxazolidinone derivatives as antibacterial” (AstraZeneca AB, priority 2002, published 2006).
# Key:
# Assay type in all cases: cell-based
# Haemophilus influenzae = experiment: MIC in Mueller-Hinton broth, Haemophilus influenzae; settings: Mueller-Hinton broth with hemin and NAD, aerobic, 24 hours, 37° C., 5×10^4 CFU/well
# Description: (§1) The following results were obtained on a standard in-vitro test system. The activity is described in terms of the minimum inhibitory concentration (MIC) determined by the agar-dilution technique with an inoculum size of 10^4 CFU/spot. Typically, compounds are active in the range 0.01 to 256 μg/ml.
# (§2) Streptococci and enterococci were tested on agar supplemented with 5% defibrinated horse blood, an inoculum of 10^4 CFU/spot and an incubation temperature of 37° C., in an atmosphere of 5% carbon dioxide for 48 hours—blood is required for the growth of some of the test organisms. Fastidious Gram negative organisms were tested in Mueller-Hinton broth, supplemented with hemin and NAD, grown aerobically for 24 hours at 37° C., and with an innoculum of 5×10^4 CFU/well.
# Streptococcus pneumoniae = experiment: MIC by agar dilution, Streptococcus pneumoniae; settings: agar with 5% defibrinated horse blood, 10^4 CFU/spot, 37° C., 5% carbon dioxide, 48 hours
# Description: as §1, §2
# [1] = system: Staphylococcus aureus MRQR (methicillin resistant and quinolone resistant); experiment: MIC by agar dilution, Staphylococcus aureus MRQR; settings: S. aureus MRQR, 10^4 CFU/spot, 37° C., 24 hours
# Description: as §1
# (§3) Staphylococci were tested on agar, using an inoculum of 10^4 CFU/spot and an incubation temperature of 37° C., for 24 hours—standard test conditions for the expression of methicillin resistance.
# [2] = system: Linezolid Resistant Streptococcus pneumoniae; experiment: MIC by agar dilution, Linezolid Resistant Streptococcus pneumoniae; settings: agar with 5% defibrinated horse blood, 10^4 CFU/spot, 37° C., 5% carbon dioxide, 48 hours
# Description: as §1, §2
# [3] = system: Staphylococcus aureus MSQS (methicillin sensitive and quinolone sensitive); experiment: MIC by agar dilution, Staphylococcus aureus MSQS; settings: S. aureus MSQS, 10^4 CFU/spot, 37° C., 24 hours
# Description: as §1, §3
# Moraxella catarrhalis = experiment: MIC in Mueller-Hinton broth, Moraxella catarrhalis; settings: Mueller-Hinton broth with hemin and NAD, aerobic, 24 hours, 37° C., 5×10^4 CFU/well
# Description: as §1, §2
# Enterococcus faecium = experiment: MIC by agar dilution, Enterococcus faecium; settings: agar with 5% defibrinated horse blood, 10^4 CFU/spot, 37° C., 5% carbon dioxide, 48 hours
# Description: as §1, §2
smiles,measurement,setting,value
Cn1nnc(-c2ccc(-c3ccc(N4C[C@H](COc5ccon5)OC4=O)cc3F)cn2)n1 [Example 1],MIC,Haemophilus influenzae,64 µg/mL
same,MIC,Streptococcus pneumoniae,1 µg/mL
same,MIC,[1],4 µg/mL
same,MIC,[2],64 µg/mL
same,MIC,[3],4 µg/mL
same,MIC,Moraxella catarrhalis,4 µg/mL
same,MIC,Enterococcus faecium,4 µg/mL
